In patent US7659275B2, “Piperidinyl piperazine derivatives useful as inhibitors of chemokine receptors” (priority 2005, dated 2010):

How the values were obtained:
[1] = system: HIV-1 YU-2 luciferase reporter virus in U87-CD4-CCR5 cells; experiment: Luciferase Replication assay (HIV replication); type: cell-based; details: Human immunodeficiency virus 1, U87/CD4/CCR5, 72 h, read-out: HIV Replication IC50 luciferase (nM, Yu-2)
Method: Luciferase Replication Assay:
Plasmids encoding the full length genome of HIV-1 pNL-4-Luc with the gp 120 V-3 loop replaced by the Bgl II fragment of HIV-1 ADA, YU-2 or HxB (ADA-Luc-FL, YU-2-Luc-FL and HxB-Luc-FL) were obtained from Dr. Susan Pontow (Washington University, St. Louis Mo.). Replication-competent luciferase reporter virus stocks were generated by transfection of plasmids into 293T cells using Superfect (Qiagen) or Mirus transfection reagents. Viral stocks were collected 48 hours following transfection and titered for luciferase production on U-87-CCR5 or CXCR4 cells. U87-CD4-CCR5 cells ([…]) were plated in 96-well cell culture plates and incubated overnight. Media was removed and replaced with 50 μl of fresh culture media (DMEM, 10% FCS) and 50 μl of compound diluted in culture medium. Cells were incubated with compound at 37° C. for 1 hour. The resultant supernatant was removed and replaced with 20 μl of media containing compound and infected with an equal volume of diluted or undiluted virus stock at 37° C. for 3-4 hours. The cells were washed once with DMEM, and 200 μl of media containing compound was added. The cultures were incubated for 3 days, the cells lysed in luciferase lysis buffer (Promega, Madison, Wis.) and transferred to Immulon plates (Dynex Technologies, Chantilly Va.). An equal volume of luciferase substrate (Promega, Madison Wis.) was added to lysates and the plates read immediately in a Wallac Luminometer. Fifty and ninety percent inhibitory concentrations were determined using GraphPad PRISM software.

Compound	melting point	IC50 [1]
Cc1nn(O)c(C)c1C(=O)N1CCC(C)(N2CCN([C@@H](c3cccc(F)c3)C3CCN(S(=O)(=O)C4CC4)CC3)[C@@H](C)C2)CC1	214 to 215 °C	43 nM
COC[C@@H](c1ccc(C(F)(F)F)cc1)N1CCN(C2(C)CCN(C(=O)c3c(C)nn(O)c3C)CC2)C[C@@H]1C	–	8 nM
COC[C@@H](c1ccc(C(F)(F)F)cc1)N1CCN(C2(C)CCN(C(=O)c3c(C)nn(OCc4ccccc4)c3C)CC2)C[C@@H]1C	–	0.4 nM
CC[C@@H](c1ccc(C(F)(F)F)cc1)N1CCN(C2(C)CCN(C(=O)c3c(C)nn(O)c3C)CC2)C[C@@H]1C	–	> 100 nM
